Source: PubChem BioAssay (NCI)
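Compound exposure: 48 hours, 5 concentrations, 96-well plates. GI50: concentration for 50% inhibition of growth. TGI denotes the concentration required for complete inhibition of growth.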

Tests used:
Test in all cases: NCI tumour cell line growth inhibition, 48 h
CCRF-CEM leukemia = tested on: CCRF-CEM leukemia
HOP-62 NSCLC = tested on: HOP-62 NSCLC
KM12 colon = tested on: KM12 colon
NCI-H226 lung = tested on: NCI-H226 lung
OVCAR-3 ovarian = tested on: OVCAR-3 ovarian
OVCAR-4 ovarian = tested on: OVCAR-4 ovarian
SK-MEL-28 melanoma = tested on: SK-MEL-28 melanoma
SW-620 colon = tested on: SW-620 colon
UO-31 renal = tested on: UO-31 renal
COLO 205 colon = tested on: COLO 205 colon

| SMILES | TGI (CCRF-CEM leukemia) [µM] | TGI (HOP-62 NSCLC) [µM] | TGI (KM12 colon) [µM] | TGI (NCI-H226 lung) [µM] | TGI (OVCAR-3 ovarian) [µM] | TGI (OVCAR-4 ovarian) [µM] | TGI (SK-MEL-28 melanoma) [µM] | TGI (SW-620 colon) [µM] | TGI (UO-31 renal) [µM] | TGI (COLO 205 colon) [µM] | GI50 (CCRF-CEM leukemia) [µM] | GI50 (COLO 205 colon) [µM] | GI50 (HOP-62 NSCLC) [µM] | GI50 (KM12 colon) [µM] | GI50 (NCI-H226 lung) [µM] | GI50 (OVCAR-3 ovarian) [µM] | GI50 (OVCAR-4 ovarian) [µM] | GI50 (SK-MEL-28 melanoma) [µM] | GI50 (SW-620 colon) [µM] | GI50 (UO-31 renal) [µM] |
| --- | --- | --- | --- | --- | --- | --- | --- | --- | --- | --- | --- | --- | --- | --- | --- | --- | --- | --- | --- | --- |
| Cc1ccc(CCCC(=O)O)cc1C | > 100 | > 100 | > 100 | > 100 | > 100 | > 100 | > 100 | > 100 | > 100 |  |  |  |  |  |  |  |  |  |  |  |
| CSc1nc(NC2OC(CO)C(O)C(O)C2O)c(N)c(=O)n1C (stereo not given) | > 100 | > 100 | > 100 | > 100 | > 100 | > 100 | > 100 | > 100 | > 100 | > 100 |  |  |  |  |  |  |  |  |  |  |
| N=C(N)c1ccc(-c2ccc(-c3ccccc3)o2)cc1 | 5.03 | 5.13 | 3.58 | 27.7 | 13.4 | 4.9 | 3.35 | 3.32 | 3.53 | 3.42 | 2.13 | 1.66 | 1.98 | 1.86 | 7.93 | 3.3 | 1.96 | 1.67 | 1.72 | 1.79 |
| Nc1cccc2cc(S(=O)(=O)Nc3ccc(C(=O)O)cc3)ccc12 | > 100 | > 100 | > 100 | > 100 | > 100 | > 100 | > 100 | > 100 | > 100 | > 100 |  |  |  |  |  |  |  |  |  |  |
| NC(=O)OCc1c(O)c2c(c(O)c1COC(N)=O)C(=O)C=CC2=O | > 100 | > 100 | > 100 | > 100 | > 100 | > 100 | > 100 | > 100 | > 100 | > 100 |  |  |  |  |  |  |  |  |  |  |
| COc1ccc(C2C(Cl)C(=O)N2NC(=O)c2ccc(NC(C)=O)cc2)cc1OC (stereo not given) | > 100 | > 100 | > 100 | > 100 | > 100 |  | > 100 | > 100 | > 100 | > 100 |  |  |  |  |  |  |  |  |  |  |
| O=C(Nc1ccc(-n2cc(-c3ccncc3)c(-c3ccc(O)c(Cl)c3)n2)cc1)c1ccc(Cl)c(Cl)c1 | > 32.5 | > 32.5 | > 32.5 | > 32.5 | > 32.5 | > 32.5 | > 32.5 | > 32.5 | > 32.5 | > 32.5 | 1.01 | > 32.5 | 2 | 1.63 | > 32.5 | 2.11 | 2.71 | > 32.5 | 2.08 | 1.8 |
| CC(C)c1cccc(C(C)C)c1NC(=S)Nc1ccccc1 | > 100 | > 100 | > 100 | > 100 | > 100 | > 100 | > 100 | > 100 | > 100 | > 100 |  |  |  |  |  |  |  |  |  |  |
| CCN(CC)CCSc1nc2c([N+](=O)[O-])cccc2[nH]1 | > 100 |  | > 100 | > 100 | > 100 | > 100 | > 100 | > 100 |  | > 100 |  |  |  |  |  |  |  |  |  |  |
| CC[n+]1c(/C=C/c2ccc(N(CCCl)CCCl)cc2)ccc2cc(Br)ccc21 |  |  | 3.3 | 7.48 | 2.22 | 7.98 | 2.52 | 14.7 |  | 128 | 304 |  | 954 |  |  |  |  |  |  | 1470 |
| O=C1c2ccccc2-c2ccc(N(Cc3ccc(Br)cc3)Cc3ccc(Br)cc3)cc21 | 46.2 | > 100 | > 100 | > 100 | > 100 | > 100 | > 100 | > 100 | > 100 | > 100 |  |  |  |  |  |  |  |  |  |  |
| CC(C)=CCC/C(C)=C/CC/C(C)=C/C(O)c1ccccc1 (stereo not given) | 52.4 | 34.3 | 51.8 | 46.2 | 36.3 | > 10 |  | 38.8 | 36.3 | 35.6 |  |  |  |  |  |  |  |  |  |  |
| CNC1=C(C)C(=O)C2=C(C1=O)C(COC(N)=O)C1(OC)C3NC3CN21 (stereo not given) | > 100 | 2.38 | 2.04 | 4.66 | 21.6 | 25.7 | 6.43 | > 100 | 7.4 | 1.35 |  |  |  |  |  |  |  |  |  |  |
